Results: article PMC8999638, “Identification of Entry Inhibitors against Delta and Omicron Variants of SARS-CoV-2” (International Journal of Molecular Sciences, 2022)
Where a name gives a salt, the structure may show the parent alone. Read-outs that look alike come from different tables or passages of the source.

Tests used:
NanoBiT = assay: Negative screening HiBiT assay (NanoBiT activity); type: cell-based; conditions: for Negative Screening HiBiT Assay % Inhibition (20 μM): 20 μM drug; for Negative Screening HiBiT Assay % Inhibition (100 μM): 100 μM drug; for Negative Screening HiBiT Assay INHIBIT NanoBiT: >70% inhibition in 100 μM, then including >35% inhibition at 20 μM
[1] = molecular target: RBD-ACE2 attachment (RBD of viral spike protein and ACE2 receptor) (Severe acute respiratory syndrome coronavirus 2, UniProt P0DTC2); assay: cell-based; set-up: species or system SARS-CoV-2; human; conditions: for inhibition at 20 µM / inhibition at 100 µM: HeLa; for inhibition at 20 µM: read-out: Positive Screening RBD Attachment Assay % Inhibition (20 μM); for inhibition at 100 µM: read-out: Positive Screening RBD Attachment Assay % Inhibition (100 μM)
in vitro = conditions: African green monkey, VeroE6 CC50, VERO E6 cells, CellTiter-Glo
VERO E6 cells = conditions: VeroE6 cells
SARS-CoV-2 = assay: microbe, parasite or virus in culture; type: cell-based; conditions: Severe acute respiratory syndrome coronavirus 2, Vero C1008, 120 h, read-out: EC50 SARS-CoV-2 PRNT
[2] = test system: spike-based pseudovirus (wild type) on SmBiT-ACE2 HeLa cells; assay: microbe, parasite or virus in culture; type: cell-based, SARS-CoV-2; conditions: Pseudovirus, HeLa
[3] = read-out: EC50 Pseudovirus Wild Type

SMILES | Negative Screening HiBiT Assay % Inhibition (20 μM) (NanoBiT) [%] | Negative Screening HiBiT Assay % Inhibition (100 μM) (NanoBiT) [%] | Negative Screening HiBiT Assay INHIBIT NanoBiT (NanoBiT) | EC50 [1] [µM] | Positive Screening RBD Attachment Assay Dose Response [1] | inhibition at 20 µM [1] [%] | inhibition at 100 µM [1] [%] | CC50 (in vitro) [µM] | Positive Screening RBD Attachment Assay % Inhibition (20 μM) [1] [%] | Positive Screening RBD Attachment Assay % Inhibition (100 μM) [1] [%] | Cytotoxicity to VeroE6 cells (VERO E6 cells) | EC50 (SARS-CoV-2) [µM] | EC50 ([2]; read-out: EC50 (nM) (Wild type)) | EC50 [2, 3] [nM] | EC50 ([2]; read-out: EC50 pseudovirus neutralization assay) [nM]
CC1(C)CCC(CN2CCN(c3ccc(C(=O)NS(=O)(=O)c4ccc(NCC5CCOCC5)c([N+](=O)[O-])c4)c(Oc4cnc5[nH]ccc5c4)c3)CC2)=C(c2ccc(Cl)cc2)C1 [ABT-199] | 0 | 43 | No | 39.1 | Yes | 51 | 96 | 17.3 | – | – | – | – | – | – | –
O=C1CCc2ccc(OCCCCN3CCN(c4cccc(Cl)c4Cl)CC3)cc2N1 [Aripiprazole] | 13 | 21 | No | – | – | – | – | 14 | – | – | – | – | – | – | –
O=C1C(O)=C([C@H]2CC[C@H](c3ccc(Cl)cc3)CC2)C(=O)c2ccccc21 [Atovaquone] | 54 | 96 | Yes | – | Yes | 39 | 95 | – | – | – | – | – | – | – | –
CCCC(=O)OCOC(=O)C1=C(C)NC(C)=C(C(=O)OC)C1c1cccc(Cl)c1Cl (stereo not drawn) [Clevidipine butyrate] | 79 | 93 | Yes | – | Yes | – | – | – | 69 | 93 | – | – | – | – | –
CN(C)c1ccc(C(=C2C=CC(=[N+](C)C)C=C2)c2ccc(N(C)C)cc2)cc1 [Crystal Violet] | 17 | 86 | Yes | – | Yes | 73 | 99 | – | – | – | – | – | – | – | –
CC(C)(C)c1nc(-c2cccc(NS(=O)(=O)c3c(F)cccc3F)c2F)c(-c2ccnc(N)n2)s1 [Dabrafenib (GSK2118436), Dabrafenib] | 88 | 97 | Yes | – | Yes | 85 | 96 | – | – | – | – | – | – | – | –
C[C@@H]1CCO[C@H]2Cn3cc(C(=O)NCc4ccc(F)cc4F)c(=O)c(O)c3C(=O)N12 [Dolutegravir sodium] | 1 | 62 | No | 14.6 | Yes | > 70 | 96 | > 100 | – | – | not toxic | 4.2 | 22.9 | 40 | –
CCCCc1oc2ccc(NS(C)(=O)=O)cc2c1C(=O)c1ccc(OCCCN(CCCC)CCCC)cc1 [Dronedarone hydrochloride] | 21 | 86 | Yes | – | Yes | 41 | 93 | – | – | – | – | – | – | – | –
Cc1cc(C#N)cc(C)c1Oc1nc(Nc2ccc(C#N)cc2)nc(N)c1Br [Etravirine] | 0 | 31 | No | 2.3 | Yes | > 70 | 90 | > 100 | – | – | not toxic | 7.7 | – | 6 | 5.8
CCOC(=O)C1=C(C)NC(C)=C(C(=O)OC)C1c1cccc(Cl)c1Cl (stereo not drawn) [Felodipine] | 88 | 99 | Yes | – | Yes | 63 | 96 | – | – | – | – | – | – | – | –
